Tested on: TK6 cells
Test: Cytotoxicity in the TK6 assay (CE, RS, RSG, RTG)
Details: for RS: graph data
[1] = Short treatment, +S9 mix, dose 445 μg/mL
[2] = Short treatment, +S9 mix, dose 712 μg/mL
[3] = Short treatment, +S9 mix, dose 1138 μg/mL
[4] = Short treatment, +S9 mix, dose 1821 μg/mL
[5] = Short treatment, -S9 mix, dose 173.70 μg/mL
[6] = Short treatment, -S9 mix, dose 277.90 μg/mL
[7] = Short treatment, -S9 mix, dose 444.70 μg/mL
[8] = Short treatment, -S9 mix, dose 711.5 μg/mL
[9] = Short treatment, -S9 mix, dose 1138.4 μg/mL
[10] = Short treatment, -S9 mix, dose 1821.4 μg/mL

Procedure: Briefly, test substances were dissolved in an appropriate solvent (DMSO or ethanol) and then serially diluted to prepare final concentrations. […] The 4 h and 24 h treatments were conducted by shaking and static exposures, respectively. After treatment with test substances, cells were centrifuged (1000 rpm, 5 min), supernatants were removed, and cells were washed with a serum-free medium or Hank’s Balanced Salt Solution. After centrifugation (1000 rpm, 5 min) to remove the supernatant, cells (2 × 10^7 cells) were dispersed in an RPMI medium containing 10% serum, and cell concentration was measured. Treated cells were cultured at 37 °C with 5% CO2 condition and used for TK6 assays. At that time, to calculate the cloning efficiency (CE) (Eq. 1), the cells were cultured in a 96-well microplate at a concentration of about 1.6 cells/well for 2 weeks.
CE, the cell colony formation rate, was calculated using Eq. 1 according to the Poisson distribution equation. EW was the number of wells without colonies, and TW was the total number of wells. N was the average number of cells per well (N = 1.6). 1 CE=−lnEW/TW/N
Additionally, CE was adjusted by the following calculation (Eq. 2) due to cell loss when exposure caused cytotoxicity. “The number of cells at the end of the treatment” was the number of cells obtained after centrifugation at the end of the treatment in the above-described exposure treatment of the test substance. The “cell number at the start of treatment” was 2 × 10^7. 2 AdjustedCE=CE×number of cellsatendof treatment/number of cellsatthe start of treatment
CE0 seeding, in which cells were seeded immediately after treatment, and CE3 seeding, in which cells were seeded 3 days after treatment, to examine cell viability in the TK6 assay described below. The relative cell viability RS0 (%) just after the treatment with the test substance was calculated from CE0, following Eq. 3. The survival rate of the negative control group was defined as 100%. 3 RS0%=adjusted CE0 of treatment culture/adjusted CE0 of solvent control×100
The TK6 assay is conducted between 20 and 10% RS0 as a maximum dose if cytotoxicity is observed. […] When the main TK6 assay was difficult to conduct under the condition of RS0 values from 20 to 10%, the test was conducted between 20 and 10% relative total growth (RTG), described later, as a maximum dose.
Besides RS0, relative suspension growth (RSG) and RTG as other cytotoxicity indices (Eq. 4) were used. When cells were cultured for 3 days after treatment with the test substance, suspension cell growth ratio 1 (SG1) was the growth ratio from day 0 to day 1 (cell concentration on day 1/cell concentration on day 0). The suspension cell growth ratio 2 (SG2) was the growth ratio from day 1 to day 2 (cell concentration on day 2/cell concentration on day 1). The RSG value was calculated by dividing the total SG value of the untreated group for 3 days by the total SG value of the treated group for the same 3 days (Eq. 4).
On the third day of culture, CE3 plates for determining plating efficiency and mutant frequency (MF) plates for mutation detection were prepared. CE3 plates were seeded in 96-well microplates at a concentration of about 1.6 cells/well.

Nc1cc([N+](=O)[O-])ccc1C(=O)O [4-Nitroanthranilic acid]
RSG [1]: 0.653
Adjusted CE0(%) [2]: 79.3%
RS0 (%) [2]: 67.0%
RSG [2]: 0.824
Adjusted CE0(%) [3]: 96.3%
RS0 (%) [3]: 81.4%
RSG [3]: 0.854
Adjusted CE0(%) [4]: 3.0%
RS0 (%) [4]: 2.6%
RSG [4]: 0.036
Adjusted CE0(%) [5]: 132.4%
RS0 (%) [5]: 186.4%
RSG [5]: 1.135
Adjusted CE0(%) [6]: 61.6%
RS0 (%) [6]: 86.8%
RSG [6]: 0.893
Adjusted CE0(%) [7]: 84.7%
RS0 (%) [7]: 119.3%
RSG [7]: 0.880
Adjusted CE0(%) [8]: 60.6%
RS0 (%) [8]: 85.4%
RSG [8]: 0.786
Adjusted CE0(%) [9]: 33.1%
RS0 (%) [9]: 46.6%
RSG [9]: 0.678
Adjusted CE0(%) [10]: 22.9%
RS0 (%) [10]: 32.3%
RSG [10]: 0.302
CE3 (as fraction in mutation frequency table, 24 h treatment, -S9 mix, 173.70 μg/mL): 0.841
CE3 (as fraction in mutation frequency table, 24 h treatment, -S9 mix, 277.90 μg/mL): 0.841
CE3 (as fraction in mutation frequency table, 24 h treatment, -S9 mix, 444.70 μg/mL): 0.793
CE3 (as fraction in mutation frequency table, 24 h treatment, -S9 mix, 711.5 μg/mL): 0.687
CE3 (as fraction in mutation frequency table, 24 h treatment, -S9 mix, 1138.4 μg/mL): 0.950
CE3 (as fraction in mutation frequency table, 24 h treatment, -S9 mix, 1821.4 μg/mL): 0.433
CE3 (as fraction, mutation frequency table, Short treatment, +S9 mix, dose 173.7 μg/mL): 0.706
CE3 (as fraction, mutation frequency table, Short treatment, +S9 mix, dose 277.9 μg/mL): 0.667
CE3 (as fraction, mutation frequency table, Short treatment, +S9 mix, dose 445 μg/mL): 0.816
CE3 (as fraction, mutation frequency table, Short treatment, +S9 mix, dose 712 μg/mL): 0.980
CE3 (as fraction, mutation frequency table, Short treatment, +S9 mix, dose 1138 μg/mL): 0.841
CE3 (as fraction, mutation frequency table, Short treatment, +S9 mix, dose 1821 μg/mL): 0.446
CE3 (as fraction, mutation frequency table, Short treatment, -S9 mix, dose 173.70 μg/mL): 0.893
CE3 (as fraction, mutation frequency table, Short treatment, -S9 mix, dose 277.90 μg/mL): 0.770
CE3 (as fraction, mutation frequency table, Short treatment, -S9 mix, dose 444.70 μg/mL): 1.046
CE3 (as fraction, mutation frequency table, Short treatment, -S9 mix, dose 711.5 μg/mL): 1.012
CE3 (as fraction, mutation frequency table, Short treatment, -S9 mix, dose 1138.4 μg/mL): 0.950
CE3 (as fraction, mutation frequency table, Short treatment, -S9 mix, dose 1821.4 μg/mL): 1.046
RS (24 h, -S9 mix, 173.70 μg/mL): 133.0
RS (24 h, -S9 mix, 277.90 μg/mL): 48.3
RS (24 h, -S9 mix, 444.70 μg/mL): 85.4
RS (24 h, -S9 mix, 711.5 μg/mL): 59.0
RS (24 h, -S9 mix, 1138.4 μg/mL): 31.8
RS (24 h, -S9 mix, 1821.4 μg/mL): 16.7
RS (Short treatment, +S9 mix, dose 173.7 μg/mL): 71.1
RS (Short treatment, +S9 mix, dose 277.9 μg/mL): 91.1
RS [1]: 49.8
RS [2]: 67.0
RS [3]: 81.4
RS [4]: 2.6
RS [5]: 186.4
RS [6]: 86.8
RS [7]: 119.3
RS [8]: 85.4
RS [9]: 46.6
RS [10]: 32.3
